Reference: paper PMC2994686, “The Function and Three-Dimensional Structure of a Thromboxane A2/Cysteinyl Leukotriene-Binding Protein from the Saliva of a Mosquito Vector of the Malaria Parasite” (PLoS Biology, 2010)
“Also recorded” adds a separate entry of the source. Like-named read-outs stand apart in the source and are kept apart here.

What was measured:
AnSt-D7L1 [1] = target: T1, AnSt-D7L1 (Anopheles stephensi, UniProt Q95NY5); conditions: for binding to AnSt-D7L1 by ITC (in words): ITC screen of candidate ligands, partly unpublished data; for Kd: read-out: dissociation constant (Kd), ITC, 35°C, 40 µM ligand in syringe, 4 µM AnSt-D7L1 in cell, single binding site model
Procedure: (§1) Binding experiments were performed on a MicroCal VP-ITC instrument. For CysLT experiments the syringe contained a 20 µM ligand solution, and the AnSt-D7L1 concentration in the cell was 2 µM. For the TXA2 analog experiments the ligand solution used to fill the syringe was 40 µM and the AnSt-D7L1 concentration in the cell was 4 µM. Assays were performed at 35°C with successive 10 µL injections.
(§2) Binding experiments were performed on a MicroCal VP-ITC instrument. For these experiments, the ligand solution used to fill the syringe was 80 µM and AnSt-D7L1 concentration in the calorimeter cell was 8 µM. Assays were performed at 35°C with successive 10 µL injections.
(§3) AnSt-D7L1 was prepared for ITC experiments by dialysis against 20 mM Tris-HCl 0.15 M NaCl pH 7.4 for 1 h. Binding experiments were performed on a MicroCal VP-ITC instrument. Aliquots of lipid stock solutions in ethanol or methyl acetate were dried under a stream of nitrogen in a glass vial, then dissolved in 20 mM Tris HCl, 0.15 M NaCl pH 7.4, vortexed, and sonicated for 8 min. Non-lipidic ligands were dissolved in 20 mM Tris HCl, 0.15 M NaCl pH 7.4. All solutions were degassed prior to use. Assays were performed at 35°C with successive 10 µL injections, with a spacing interval of 180 s and a syringe stirring speed of 290 rpm. In all the cases, after subtraction of the heats of dilution, the measured heats were converted to enthalpies and analyzed by fitting to a single-site binding model using the Microcal Origin software.

AeD7 = test system: AeD7; set-up: method as in PMID 19234127; conditions: cited from earlier work
AnSt-D7L1 [2] = target: T1, AnSt-D7L1; test: Incubation of LTC4 with AnSt-D7L1, gel filtration, HPLC and mass spectrometry (test for hydrolytic or enzymatic function); set-up: made in house; conditions: incubated at 25°C; mass spectrum of bound versus free ligand
Procedure: Fractions containing the complex were then applied to a C18 HPLC column, eluted with methanol, and analyzed by mass spectrometry.
(B) LTC4 was injected alone in order to obtain a retention volume measurement for the free ligand. In both cases, the column was eluted with 100 mM ammonium acetate pH 7.2 at a flow rate of 60 µL per min. (0.39 MB TIF) Click here for additional data file.
Supplementary file pbio.1000547.s003.tif: Figure S3 Mass spectral analysis of the AnSt-D7L1-LTC4 complex after gel filtration chromatography. Top: The peak fraction from the gel filtration of Figure S2 (3 µl) was applied to a C18 column and eluted with 5% methanol 0.1% acetic acid for 10 min, then 5%–95% methanol 0.1% acetic acid (0.3 mm diameter column in 20 min at 3 µl/min). The eluent was analyzed directly by MS/MS. […] The inset is a sample collision-induced dissociation spectrum (35% intensity) recorded at 61–65 min. (2.15 MB TIF) Click here for additional data file.

AnSt-D7L1 [3] = target: T1, AnSt-D7L1; test: biochemical
Procedure: as §1, §2, §3

CysLT1 = target: CysLT1; set-up: method as in PMID 16107763; conditions: read-out: affinity of CysLT1; cited from earlier work
[4] = test system: Human platelet-rich plasma; test: Platelet aggregation assay in an aggregometer; assay type: cell-based; conditions: for effect on U46619-induced platelet shape change / effect on U46619-induced platelet aggregation: 1.3 µM U46619; for effect on U46619-induced platelet shape change: AnSt-D7L1 2 and 3 µM, SQ 29,548 1 µM without protein; for effect on collagen-induced platelet aggregation (comparison with TXA2 antagonists): 3 µM AnSt-D7L1, SQ 29,548, or indomethacin pre-treatment
Procedure: Figure 5 Effect of AnSt-D7L1 on platelet aggregation promoted by different agonists. Platelet-rich human plasma was incubated with different concentrations of AnSt-D7L1 for 1 min prior to the addition of agonists as indicated. Aggregation was measured at 37°C on an aggregometer. Unless otherwise stated protein concentration (µM) is shown under respective curves. (A) Concentration dependence of AnSt-D7L1 inhibition of collagen-mediated platelet aggregation at low concentration of collagen. (B) Lack of inhibition of collagen-mediated platelet aggregation by AnSt-D7L1 at high concentration of collagen. (C) Lack of inhibition of convulxin-mediated platelet aggregation by AnSt-D7L1. (D) ADP-mediated platelet aggregation in the absence of any protein (control), in the presence of 3 µM AnSt-D7L1, or in the presence of 3 µM RPAI1, which is known to bind ADP. (E) Lack of effect of AnSt-D7L1 on PMA-induced platelet aggregation. (F) Lack of effect of AnSt-D7L1 on ristocetin-induced platelet aggregation.
Figure 6 AnSt-D7L1 affects platelet aggregation promoted by TXA2. Platelet-rich human plasma was incubated with different concentrations of AnSt-D7L1 or buffer, as indicated, for 1 min prior to the addition of agonists indicated in each panel. (A) Aggregation mediated by collagen in the presence of TXA2 antagonists. The effect of 3 µM AnSt-D7L1 on collagen-induced aggregation was similar to the effect promoted by a thromboxane receptor (TP) antagonist (SQ 29,548) or by pre-incubating platelets with indomethacin, a general cyclooxygenase inhibitor. […] (B) AnSt-D7L1 has a dose dependent effect on U46619-induced platelet aggregation. Protein concentrations are shown on the bottom of each curve. […] (C) AnSt-D7L1 (3 µM) affects AA-induced platelet aggregation. […] Respective treatments are indicated in the bottom of each curve.
Platelets were prepared as described previously. Human platelet-rich plasma (∼2×10^5/µL final density) and Tyrode-BSA buffer in the presence or absence of AnSt-D7L1 (final volume 300 µL) were placed in an aggregometer and stirred at 1,200 rpm at 37°C for 1 min prior to the addition of different agonists. In experiments using the human TP (TXA2 receptor) antagonist SQ 29,548 or made in the presence of proteins (AnSt-D7L1 or RPAI-1), those compounds were added to the platelet suspension and Tyrode mix prior to addition of agonists. In experiments in which indomethacin, a general cycloxygenase inhibitor, was used, platelets were pre-incubated with the compound for 5 min prior to addition of agonists.

TP receptor = target: TP receptor; set-up: method as in PMID 18374420; conditions: Gα12/13-coupled signaling; read-out: EC50 for TP-mediated shape change; cited from earlier work
rat aorta = test: Smooth muscle bioassay: U46619-induced contraction of rat aorta
Procedure: Figure 4 Smooth muscle contraction bioassay.
Tissue preparations were bathed in modified Tyrode solution (with 10 mM HEPES buffer, pH 7.4) during the course of the experiment, and the solutions were kept oxygenated by bubbling air into the bath.

T1 sequence (Q95NY5 19-315 limits assumed): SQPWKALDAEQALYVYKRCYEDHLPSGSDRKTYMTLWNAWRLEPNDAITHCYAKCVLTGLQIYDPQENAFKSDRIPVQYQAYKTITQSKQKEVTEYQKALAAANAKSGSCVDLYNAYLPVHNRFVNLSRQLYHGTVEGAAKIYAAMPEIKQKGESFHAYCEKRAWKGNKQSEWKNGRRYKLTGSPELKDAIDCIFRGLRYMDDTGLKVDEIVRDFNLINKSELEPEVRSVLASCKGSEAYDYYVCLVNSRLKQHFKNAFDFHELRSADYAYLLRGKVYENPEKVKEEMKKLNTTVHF

CCCCC/C=C\C/C=C\C/C=C\C/C=C\CCCC(=O)O [AA, arachidonic acid]
binding to AnSt-D7L1 by ITC (in words) (AnSt-D7L1 [1]): no detectable binding

Nc1ncnc2c1ncn2[C@@H]1O[C@H](COP(=O)(O)OP(=O)(O)O)[C@@H](O)[C@H]1O [ADP, adenosine diphosphate]
binding to AnSt-D7L1 by ITC (in words) (AnSt-D7L1 [1]): Neither showed any detectable binding

CCCCC/C=C\C[C@@H](O)/C=C/C=C/C=C\[C@@H](O)CCCC(=O)O [LTB4, leukotriene B4]
binding to AeD7 (in words) (AeD7): low affinity
binding to AnSt-D7L1 by ITC (in words) (AnSt-D7L1 [1]): did not bind

CCCCC/C=C\C\C=C/C=C/C=C/[C@@H](SC[C@H](NC(=O)CC[C@H](N)C(=O)O)C(=O)NCC(=O)O)[C@@H](O)CCCC(=O)O [LTC4, leukotriene C4]
chemical modification of bound LTC4 by AnSt-D7L1 (AnSt-D7L1 [2]): binds but does not chemically modify

CCCCC/C=C\C\C=C/C=C/C=C/[C@@H](SC[C@H](N)C(=O)NCC(=O)O)[C@@H](O)CCCC(=O)O [LTD4, leukotriene D4]
Kd (AnSt-D7L1 [3]): 5 ± 1 nM

CCCCC/C=C\C\C=C/C=C/C=C/[C@@H](SC[C@H](N)C(=O)O)[C@@H](O)CCCC(=O)O [LTE4, leukotriene E4]
Kd (CysLT1): ~100 nM

CCCCC[C@H](O)/C=C/[C@H]1C(=O)C[C@H](O)[C@@H]1C/C=C\CCCC(=O)O [PGD2]
binding to AnSt-D7L1 by ITC (in words) (AnSt-D7L1 [1]): affinities much lower than those seen with CysLTs and TXA2 analogs

CCCCC[C@H](O)/C=C/[C@H]1[C@H](O)CC(=O)[C@@H]1C/C=C\CCCC(=O)O [PGE2, prostaglandin E2]
binding to AnSt-D7L1 by ITC (in words) (AnSt-D7L1 [1]): affinities much lower than those seen with CysLTs and TXA2 analogs
Kd (AnSt-D7L1 [3]): 1900 ± 200 nM

CCCCC[C@H](O)/C=C/[C@@H]1[C@@H](C/C=C\CCCC(=O)O)[C@@H](O)C[C@H]1O [PGF2α, prostaglandin F2α]
binding to AnSt-D7L1 by ITC (in words) (AnSt-D7L1 [1]): affinities much lower than those seen with CysLTs and TXA2 analogs
Kd (AnSt-D7L1 [3]): 671 ± 61 nM

O=C(O)CCC/C=C\C[C@@H]1[C@H](CNNC(=O)Nc2ccccc2)[C@H]2CC[C@@H]1O2 [SQ 29,548]
effect on U46619-induced platelet shape change [4]: prevented
effect on collagen-induced platelet aggregation (comparison with TXA2 antagonists) [4]: attenuated

CCCCC[C@H](O)/C=C/[C@H]1OC(O)C[C@H](O)[C@@H]1C/C=C\CCCC(=O)O (stereo partly shown) [TXB2, thromboxane B2]
Kd (AnSt-D7L1 [3]): 1300 ± 200 nM

CCCCC[C@H](O)/C=C/[C@@H]1[C@@H](C/C=C\CCCC(=O)O)[C@H]2CO[C@@H]1C2 [U46619]
binding to AeD7 (in words) (AeD7): no detectable binding
EC50 (TP receptor): ~13 nM
Kd (AnSt-D7L1 [1]): ~98 nM

CCCCCC/C=C/C1C2CC(N=N2)C1C/C=C\CCCC(=O)O (stereo not shown) [U51605]
binding to AnSt-D7L1 by ITC (in words) (AnSt-D7L1 [1]): detectable but much weaker binding than U46619

CCCCC[C@H](O)/C=C/[C@H]1CC2CC(C2)[C@@H]1C/C=C\CCCC(=O)O [carbocyclic TXA2]
Kd (AnSt-D7L1 [1]): ~38 nM

COc1ccc2c(c1)c(CC(=O)O)c(C)n2C(=O)c1ccc(Cl)cc1 [indomethacin]
effect on collagen-induced platelet aggregation (comparison with TXA2 antagonists) [4]: attenuated

CNC[C@H](O)c1cccc(O)c1 [phenylephrine]
contraction of aorta after relaxation by AnSt-D7L1 (rat aorta; 3 µM phenylephrine added after relaxation): contracted normally

AnSt-D7L1: recombinant two-domain D7 salivary protein from An. stephensi that binds CysLTs and TXA2
reversal of contraction induced by U46619 (rat aorta; aorta pre-contracted with 1 µM U46619, 0.1 µM AnSt-D7L1 added after plateau): caused relaxation
effect on U46619-induced contraction of aorta (rat aorta; pre-incubation with AnSt-D7L1, 0.1 µM U46619): inhibited; also recorded: no contraction
increase of the amount of U46619 needed to promote contraction (rat aorta; pre-incubation with AnSt-D7L1, successive additions of 0.1 µM U46619): approximately 3 fold
effect on U46619-induced platelet aggregation ([4]; 1 µM AnSt-D7L1): dramatically inhibited aggregation
effect on U46619-induced platelet aggregation ([4]; 2 and 3 µM AnSt-D7L1): completely prevented aggregation
effect on U46619-induced platelet shape change [4]: not completely inhibited
effect on U46619-induced platelet aggregation ([4]; low AnSt-D7L1 concentrations, less than 1:1 ratio): delayed but did not prevent platelet aggregation
effect on AA-induced platelet aggregation ([4]; AA as agonist, 3 µM AnSt-D7L1, or indomethacin pre-incubation without protein): drastically decreased
inhibition of convulxin-induced platelet aggregation ([4]; GPVI agonist convulxin): inhibitory effect of AnSt-D7L1 was lost
inhibition of collagen-induced platelet aggregation ([4]; collagen at high concentration): inhibitory effect of AnSt-D7L1 was lost
effect on collagen-induced platelet aggregation (comparison with TXA2 antagonists) [4]: very similar
inhibition of collagen-induced platelet aggregation ([4]; low collagen 1.6 µg/mL, 1 µM AnSt-D7L1): almost completely inhibited
effect on the platelet response to collagen stimulation ([4]; low collagen, 0.03 µM AnSt-D7L1): sufficient to remove a significant fraction of the TXA2
effect on the platelet aggregation response to collagen ([4]; low collagen, 0.1 µM AnSt-D7L1): eliminates most of the aggregation response
inhibition of ADP-induced platelet shape change ([4]; minimal dose of ADP eliciting shape change, 3 µM protein): no inhibitory effect
effect on PMA-induced platelet aggregation ([4]; protein kinase C activator PMA): no effect
effect on ristocetin-induced platelet agglutination ([4]; ristocetin, VWF-dependent): no effect

platelet activating factor [PAF]
binding to AnSt-D7L1 by ITC (in words) (AnSt-D7L1 [1]): Neither showed any detectable binding
